# Patent US20160151503A1, “COMPOSITIONS AND PREPARATION METHODS OF LOW MELTING IONIC SALTS OF POORLY-WATER SOLUBLE DRUGS” (MW ENCAP LIMITED, priority 2013, published 2016)
# Structures can show the parent of a compound that is named as a salt.
# Columns and labels:
# [1] = Drug solubility in exemplar lipid formulations (SEDDS) and individual excipients
# Description: Where lipid based formulations have been employed, formulations were made up in glass vials by weighing the appropriate quantities of excipient directly into the vial, followed by mixing
# In some cases the solubility of the low melting ionic salt in individual excipients was also measured.
# Drug solubility in each formulation was assessed in one of two ways. Firstly, quantitatively, by incubating formulations with excess drug at 37 degrees and taking samples over time. These samples were centrifuged to pellet solid material and the drug concentration in the formulation assessed by HPLC.
# [2] = In vitro dispersion and digestion of cinnarizine decylsulfate SEDDS solution in simulated intestinal fluid; assay type: in vitro ADME; settings: after in vitro dispersion or digestion of SEDDS solution in SIF
# [3] = Equilibrium solubility in colloids formed by in vitro digestion of blank SEDDS in simulated intestinal fluid; assay type: physicochemical; settings: colloids from 60 min digestion of blank LC2 SEDDS (1 g in 39 mL SIF), pH 6.5, 37° C.
# Description: In this experiment blank SEDDS formulation (1 g) was dispersed in 39 mL of simulated intestinal fluid. (SIF) (2 mM Tris-maleate, 1.4 mM CaCl2.H2O, 150 mM NaCl, 3 mM NaTDC, 0.75 mM PC, pH 6.5, 37° C.) and pancreatic enzymes added to stimulate digestion. The experiment was conducted at 37° C. and allowed to continue for 60 mins. […] From the data in Table 5.3 below it is apparent that synthesis of the IL increases drug affinity for intestinal colloidal phases and therefore increases solubilisation in the GI tract—consistent with the increases in exposure seen in FIG. 3
# [4] = Itraconazole plasma pharmacokinetics after oral administration of comparative formulations to rats; assay type: in vivo; settings: same equivalent dose of ITZ FB, solution in SEDDS
# Description: Note that the very low solubility of ITZ free base precludes formulation as a lipid based formulation. It is only via isolation as the IL that this possibility is realised since the solubility of the ITZ IL in lipid formulations is very much higher. All were dosed at the same dose (20 mg/kg).
# The isolation of ITZ as the docusate IL increased drug solubility in the SEDDS formulation and allowed administration as a Solution in the SEDDS formulation. […] ITZ FB was not sufficiently soluble in the SEDDS formulation to allow administration as a solution in the SEDDS at any reasonable dose and was therefore dosed as a suspension in the SEDDS formulation and also as an aqueous suspension. The same dose was administered as the commercial Sporanox formulation of ITZ FB
# It is apparent that the ITZ IL formulation allowed administration of a much higher ITZ dose as a solution in a lipid based formulation and that this in turn led to much higher plasma levels than the equivalent suspension formulation of the free base, or the commercial Sporanox formulation.
# [5] = SEDDS: 15% soybean oil, 15% Maisine 35-1, 60% Cremophor EL, 10% EtOH
# [6] = Table 8 Meclofenamic Acid, MC SEDDS
# [7] = Table 7 Tolfenamic Acid, MC SEDDS
compound,measurement,setting,value
"C(=C/c1ccccc1)/CN1CCN(C(c2ccccc2)c2ccccc2)CC1 [Cinnadzine free base, Cinnarizine, reference compound]",cinnarizine solubility in the lipid vehicle,[1]; [5],approximately 44 mg/g
"C(=C\c1ccccc1)/CN1CCN(C(c2ccccc2)c2ccccc2)CC1 [Cinnarizine-decylsulfate, Cinnarizine Decylsulfate]",incorporated drug remaining solubilized in an aqueous phase,[2],more than 95%
same,miscibility with the SEDDS formulation,[1]; [5],essentially miscible
"COc1ccc2c(c1)[C@]13CCCC[C@@H]1[C@H](C2)N(C)CC3 [Dextromethorphan, reference compound]",Solubility in MC SEDDS (mg/g) Free base equiv.,"[1]; Table 5 Dextromethorphan and Metformin, MC SEDDS",<50 mg/g
"CCC(C)n1ncn(-c2ccc(N3CCN(c4ccc(OCC5COC(Cn6cncn6)(c6ccc(Cl)cc6Cl)O5)cc4)CC3)cc2)c1=O (stereo not shown) [Itraconazole free base, Itraconazole, reference compound]",Solubility in simulated intestinal fluid plus lipid digestion products,[3]; listed as ITZ FB,<0.047 mg/mL
"CCC(C)n1ncn(-c2ccc(N3CCN(c4ccc(OCC5COC(Cn6cncn6)(c6ccc(Cl)cc6Cl)O5)cc4)CC3)cc2)c1=O (stereo not shown) [Itraconazole- diocytlsulfosuccinate, Itraconazole Dioctylsulfosuccinate (Docusate)]",plasma levels compared to the commercial formulation,[4],~2.5 fold
same,Solubility in simulated intestinal fluid plus lipid digestion products,[3]; listed as ITZ-docusate IL,1.72 ± 0.15 mg/mL
same,Solubility in LC^2 SEDDS (mg/g) itraconazole equiv.,"[1]; LC2 SEDDS: 30% SBO, 30% Maisine, 30% CrEL, 10% EtOH",159.8 mg/g
"Cc1ccc(Cl)c(Nc2ccccc2C(=O)O)c1Cl [Meclofenamic acid, 1- hexadecyl-3- methylpyridinium salt] [Meclofenamic Acid, 1-hexadecyl-3-methylpyridinium Salt]",Solubility in MC^2 SEDDS (mg/g) Free base equiv.,[1]; [6],>240 mg/g
"Cc1ccc(Cl)c(Nc2ccccc2C(=O)O)c1Cl [Meclofenamic acid, N-decyl-N,N- dimethyldodecylammonium salt] [Meclofenamic Acid, N-decyl-N,N-dimethyldodecylammonium Salt]",Solubility in MC^2 SEDDS (mg/g) Free base equiv.,[1]; [6],>240 mg/g
"Cc1c(Cl)cccc1Nc1ccccc1C(=O)O [Tolfenamic acid dodecylammonium salt, Tolfenamic Acid, Dodecylammonium Salt]",Solubility in MC^2 SEDDS (mg/g) Free base equiv.,[1]; [7],>50 mg/g
"Cc1c(Cl)cccc1Nc1ccccc1C(=O)O [Tolfenamic acid, N-butyl- N,N-dimethylbutyl-N- dodecylammoni] [Tolfenamic Acid, N-butyl-N,N-dimethylbutyl-N-dodecylammonium Salt]",Solubility in MC^2 SEDDS (mg/g) Free base equiv.,[1]; [7],>200 mg/g
"Cc1c(Cl)cccc1Nc1ccccc1C(=O)O [Tolfenamic acid, N-decyl-N,N- dimethyldodecylammonium salt] [Tolfenamic Acid, N-decyl-N,N-dimethyldodecylammonium Salt]",Solubility in MC^2 SEDDS (mg/g) Free base equiv.,[1]; [7],>200 mg/g
